Experimental findings from PubChem BioAssay (NCI) are described below.

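48-hour exposure; five concentrations; linearly interpolated endpoints. GI50: concentration for 50% inhibition of growth. TGI denotes the concentration required for complete inhibition of growth.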 Where only a bound is given, the exact number is not on record here.

What all share (experiment): NCI tumour cell line growth inhibition, 48 h
Test [1] has as its system NCI-H460 lung.
Test [2] has as its system UACC-257 melanoma.
In test [3] the test system is SW-620 colon.
The test system of test [4] is NCI-H23 lung.
Test [5] relates to T-47D breast.
The test system of test [6] is IGROV1 ovarian.
Test [7] deals with SF-268 CNS.
The subject of test [8] is NCI-H522 lung.

As to `COc1cc(-c2nn(-c3ccc(NC(=O)c4cc(Cl)cc(Cl)c4)cc3)cc2-c2ccncc2)ccc1Cl`, the GI50 is 8.48 µM in test [1]; more than 100 µM in test [2]; more than 100 µM in test [3]; more than 100 µM in test [4]; more than 100 µM in test [5]; more than 100 µM in test [6]. In addition, the GI50 in test [7] is more than 100 µM. For the same molecule, the TGI in test [1], in test [2], in test [3], in test [4], in test [5] and in test [6] was more than 100 µM throughout. Moreover, the TGI in test [7] is more than 100 µM.

As to `Oc1ccc(Cl)cc1-c1cc(-c2ccc(F)cc2)n[nH]1`, the GI50 is 1.2 µM in test [1]; 2.96 µM in test [2]; 2.64 µM in test [3]; 1.61 µM in test [4]; 1.6 µM in test [5]; 1.23 µM in test [6]. In addition, the GI50 in test [7] was 2.66 µM. Moreover, the TGI in test [1] was 4.1 µM; in test [2], 21 µM; in test [3], 10.5 µM; in test [4], 4.09 µM; in test [5], 38.8 µM; in test [6], 8.44 µM. The same molecule registered a TGI in test [7] of 11.4 µM.

For `COc1cc2c(cc1OC)-c1ncc3cc4c(cc3c1C2)OCO4`, the GI50 in test [1] is 13 µM; in test [2], 48.4 µM; in test [3], 34.9 µM; in test [8] it was 13.2 µM; in test [4] it was 20.3 µM; in test [5], 71.2 µM. Besides, the GI50 in test [6] was 25 µM. Further, the TGI in test [1] was 30.5 µM; in test [2], more than 100 µM; in test [3], more than 100 µM; in test [8], 48.4 µM; in test [4], 41.7 µM; in test [5], more than 100 µM. The molecule also had a TGI in test [6] of 59.6 µM.

As for `COc1c(N2CCN(Cn3c(O)c(N=NC(=O)c4ccncc4)c4cc(F)ccc43)C(C)C2)c(F)cc2c(=O)c(C(=O)O)cn(C3CC3)c12` (stereo unspecified), the GI50 was 12.4 µM in test [1]; more than 50 µM in test [2]; 13.2 µM in test [3]; more than 50 µM in test [8]; 16.7 µM in test [4]; 42.1 µM in test [6]. Further, in test [7], the GI50 is 10.6 µM. In addition, the TGI in test [1], in test [2], in test [3], in test [8], in test [4] and in test [6] was more than 50 µM in each case. In addition, the TGI in test [7] is 38.2 µM.

Consider `COc1ccc(/C=N/N=C(\[O-])c2ccncc2)cc1F.COc1ccc(/C=N\N=C(/[O-])c2ccncc2)cc1F.[Cu+2]`, for which the GI50 is 13.6 µM in test [1]; 17.9 µM in test [2]; 35.7 µM in test [3]; 12.7 µM in test [8]; 25.4 µM in test [4]; 17.6 µM in test [6]. The GI50 in test [7] is 25.9 µM. In addition, the TGI is 26.5 µM in test [1]; 40.2 µM in test [2]; more than 100 µM in test [3]; 26.1 µM in test [8]; 58.2 µM in test [4]; 40.2 µM in test [6]. Further, the TGI in test [7] was 86.3 µM.

Consider `Cn1ncc(-c2ccc3c(=O)[nH]nc(CN)c3c2)c1-c1c(F)cc2ccccc2c1C#N`, for which the GI50 is 3.67 µM in test [1]; 7.28 µM in test [2]; 3.05 µM in test [3]; 4.17 µM in test [8]; 3.48 µM in test [5]; 4.63 µM in test [6]. In addition, in test [7], the GI50 was 4.74 µM. In addition, the TGI turned out to be 14.6 µM in test [1]; 20.8 µM in test [2]; 15.1 µM in test [3]; 17.7 µM in test [8]; 17.6 µM in test [5]; 19.7 µM in test [6]. In test [7], the TGI stood at 20.6 µM.

For `Nc1c(C(=O)Nc2cccc(Br)c2)sc2nc3c(cc12)C(O)CCC3` (stereo unspecified), the GI50 was 0.375 µM in test [1]; 0.4 µM in test [3]; 0.412 µM in test [8]; 0.761 µM in test [4]; 13.9 µM in test [5]; 0.833 µM in test [6]. In test [7], the GI50 was 0.682 µM. Further, the TGI in test [1] is 22 µM; in test [3], more than 82 µM; in test [8], more than 67.6 µM; in test [4], more than 100 µM; in test [5], more than 100 µM; in test [6] it was more than 70.3 µM. In addition, in test [7], the TGI was more than 57.6 µM.

As to `O=c1c2c3c(sc2n2c(-c4ccc(Br)cc4)nnc2n1Cc1ccccc1)CCCC3`, the GI50 in test [1] was 10.2 µM; in test [3], 13.1 µM; in test [4], 12.4 µM; in test [5], 4.42 µM; in test [6] it was 11.7 µM; in test [7], 7.44 µM. Moreover, the TGI in test [1] amounted to 22.3 µM; in test [2], 11.9 µM; in test [3], 26.3 µM; in test [4] it was 31.3 µM; in test [5], 16.8 µM; in test [6], 26.9 µM. In test [7], this molecule displayed a TGI of 21.1 µM.

For `Cc1cc(O)c(C(c2ccncc2)c2c(O)cc(C)[nH]c2=O)c(=O)[nH]1`, the TGI in test [1], in test [2], in test [8], in test [4], in test [5] and in test [6] was more than 100 µM each time. Also, in test [7], the TGI is more than 100 µM.

As for `O=C1c2ccn(CCCCN3CCC(O)CC3)c2C(=O)c2c1c(O)c1ccccc1c2O`, the GI50 in test [2] is 17.3 µM; in test [3] it was 4.48 µM; in test [8] it was 2.86 µM; in test [4], 1.97 µM; in test [5], more than 46 µM; in test [6] it was 2.53 µM. Also, in test [7], the GI50 is 17.8 µM. Also, the TGI was more than 64.1 µM in test [2]; more than 100 µM in test [3]; 14.4 µM in test [8]; 3.84 µM in test [4]; more than 67.6 µM in test [5]; more than 100 µM in test [6]. Moreover, in test [7], the TGI is more than 74.3 µM.

For `C#Cc1cc2c(N)c(C(=O)c3cc(OC)c(OC)c(OC)c3)[nH]c2cc1OC`, the GI50 in test [1] is 0.408 µM; in test [2], 0.532 µM; in test [3] it was 0.396 µM; in test [4] it was 1.94 µM; in test [5] it was 0.449 µM; in test [6] it was 2.05 µM. The GI50 in test [7] was 14.1 µM. Also, the TGI in test [1] is more than 100 µM; in test [2] it was more than 100 µM; in test [3], more than 100 µM; in test [4], more than 100 µM; in test [5] it was 54.7 µM; in test [6], 74.9 µM. Moreover, in test [7], the TGI was more than 100 µM.
